# Results: patent US20120053235A1, “Dihydromyricetin as an IKK-beta inhibitor used for treatment of arthritis, cancer and autoimmune conditions, and other diseases or disorders” (HONG KONG BAPTIST UNIVERSITY, priority 2010, published 2012)
# Tests used:
# human recombinant IKK-β = target: T1, human recombinant IKK-β (Homo sapiens, UniProt O14920); test: IKK-β competition assay (dot blot with biotin-DMY); format: binding; settings: 100 μM biotin-DMY, 0, 1 and 5 folds of parental compound; FIG. 5A
# T1 sequence (O14920 1-756): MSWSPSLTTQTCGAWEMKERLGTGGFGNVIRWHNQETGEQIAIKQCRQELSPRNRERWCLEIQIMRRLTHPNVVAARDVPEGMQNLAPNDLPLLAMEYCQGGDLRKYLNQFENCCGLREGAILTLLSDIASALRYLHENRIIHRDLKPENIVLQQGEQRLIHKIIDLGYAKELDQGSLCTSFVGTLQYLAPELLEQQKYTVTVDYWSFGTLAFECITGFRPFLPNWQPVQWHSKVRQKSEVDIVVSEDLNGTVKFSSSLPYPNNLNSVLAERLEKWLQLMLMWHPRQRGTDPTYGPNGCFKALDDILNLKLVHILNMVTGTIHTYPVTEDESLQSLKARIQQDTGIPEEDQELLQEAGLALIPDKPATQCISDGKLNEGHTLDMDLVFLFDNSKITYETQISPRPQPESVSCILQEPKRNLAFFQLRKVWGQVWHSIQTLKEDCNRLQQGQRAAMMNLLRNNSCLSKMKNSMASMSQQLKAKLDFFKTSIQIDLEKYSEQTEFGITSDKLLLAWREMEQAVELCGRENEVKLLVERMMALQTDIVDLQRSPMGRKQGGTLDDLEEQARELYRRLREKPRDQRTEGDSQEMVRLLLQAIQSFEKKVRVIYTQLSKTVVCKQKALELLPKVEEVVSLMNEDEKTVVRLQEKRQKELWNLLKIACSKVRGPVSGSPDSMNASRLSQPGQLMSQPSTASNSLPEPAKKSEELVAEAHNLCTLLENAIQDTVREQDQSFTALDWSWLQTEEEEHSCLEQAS
# Procedure: 5 ng of human recombinant IKK-β was incubated with 100 μM of the biotin-DMY in the presence of 0, 1, and 5 folds of concentration of its parental compound. The mixture was dropped on the nitrocellulose membranes, and then detected with streptavidin horseradish peroxidase. The binding signal was then detected by using ECL.
# [1] = test system: c-Jun nuclear translocation in human T lymphocytes; test: c-Jun nuclear translocation assay (Western blot); format: cell-based; settings: pretreated 1 hour, PMA plus ionomycin 120 minutes
# Procedure: For c-Jun and c-Fos nuclear translocation assays, the human T lymphocytes (6×10^6/well) were pretreated with DMY for 1 hour, and then stimulated with 20 ng/ml PMA plus […] ionomycin for 120 minutes. After the cells were harvested and washed with PBS twice, the nuclear proteins of cells were then prepared using NucBuster™ Reagents. Afterwards, the washed cells were re-suspended using 60 μl NucBuster™ Reagent 1 per 30 μl of packed cells and processed twice by vortexing for 15 seconds, and followed by the incubation on ice for 5 minutes and second vortexing for 15 seconds, and finally centrifuged at 16000 g for 5 minutes. The supernatants containing cytoplasmic proteins were discarded; the cell pellets were re-suspended in 45 μl of NucBuster Extraction Reagent 2. The same vortexing, icing, and repeated vortexing steps were repeated once to prepare the nuclear proteins of the cells.
# Protein concentrations were determined by using Bio-Rad Protein assay. Equal amounts of nuclear proteins or whole-cell lysates were analyzed by 10% SDS-PAGE. After electrophoresis, the proteins were electro-transferred to the nitrocellulose membranes. […]
# [2] = test system: ear edema induced by dinitrofluorobenzene in male ICR mice; test: Delay-type hypersensitivity test (DNFB-induced ear edema); format: in vivo
# Procedure: Male mice were sensitized through topical application of 20 μl of 0.5% (v/v) dinitrofluorobenzene (DNFB) in acetone onto the shaved abdomen on days 1 and 2. Challenge was then preformed in day 6 by applying DNFB (20 μl, 0.5%, v/v) on the left inner and outer ear surfaces of mice. DMY (at doses of 0.5, 1, 2 mg/ear) and DEX (0.025 mg/ear, Sigma-Aldrich) dissolved in acetone was topically applied (20 μl) to the ears at 2nd, 24th, 48th, and 72nd hour after the challenge. The mice were sacrificed by cervical dislocation, and then the same area of the ears was punched from each animal. Spleens and thymuses were isolated and weighted. The ear edema was calculated according to the differences between the weight of the right and left ears. The control group was treated only with DNFB.
# [3] = test system: collagen II induced arthritis in female Wistar rats; test: Collagen II induced arthritis (CIA); format: in vivo
# Procedure: Collagen II solution (collagen, 2 mg/ml in 0.05M acetic acid, Chondrex 20022, Redmond, Wash., USA) was emulsified with an equal volume of incomplete Freund's adjuvant (IFA, Chondrex 7002, Redmond, Wash., USA) at 4° C. using a high-speed homogenizer. In the experiment of CIA, DMY was encapsulated with HP-CD (1:8.48) and then dissolved in the normal saline with drug concentrations of 50 and 100 mg/kg body weight. Rats were intradermally injected at the base of the tail with 100 μl collagen/incomplete Freund's adjuvant (IFA) emulsion containing […] of collagen II by the use of a glass syringe equipped with a locking hub and a 27-G needle. On day 7 after the primary immunization, all the rats were given a booster injection of 100 μg of collagen II in IFA. On the day after the onset of arthritis (day 13), the CIA rats were exposed to a daily intraperitoneal administration of DMY (50 and 100 mg/kg) until day 30 of the study. DEX (0.1 mg/kg, one per day), MTX (3.75 mg/kg, twice per week), and indomethacin (1 mg/kg, one per day) were used as positive reference drugs. The rats were inspected daily from the onset of arthritis characterized by edema and/or erythema in the paws. The incidence and severity of arthritis were evaluated using an arthritic scoring system, and bi-hind paw volumes and body weight were measured every 2 days started on the day when the arthritic signs were firstly visible (day 13). In the arthritic scoring system, lesions (i.e., the clinical arthritic signs) of the four paws of each rat were graded from 0 to 4 according to the extent of both edema and erythema of the periarticular tissues. As such, 16 was the potential maximum of the combined arthritic scores per animal. The hind paw volumes were measured using a plethysmometer chamber (7140 UGO. Basile, Comerio, Italy) and expressed as the mean volume change of both hind paws of the rats. Body weight of the rats was monitored with a 0.1 g precision balance (Sartorius AG, Goettingen, Germany). On day 30, all rats were sacrificed with liver, spleen and thymus being collected and weighted. The organ index for a specific organ is equal to the ratio of the weight of that organ to a body weight of 100 g.
# [4] = DTHT mice, topical treatment, FIGS. 9B and C
# [5] = CIA rats, daily intraperitoneal 50 and 100 mg/kg, day 13 to day 30, vs vehicle-treated, FIGS. 10A and B
structure (smiles),measurement,setting,value
"O=C1c2c(O)cc(O)cc2O[C@H](c2cc(O)c(O)c(O)c2)[C@H]1O [DMY, dihydromyricetin]",competition with biotin-DMY for binding to IKK-β,human recombinant IKK-β,can compete with biotin-DMY
same,nuclear translocation of c-Jun,[1],suppress nuclear translocation
same,body weight,"[2]; DTHT mice, topical treatment",only a small decrease
same,spleen weight,[2]; [4],increase
same,thymus weight,[2]; [4],increase
same,ear edema,"[2]; topical, 0.5, 1, 2 mg/ear at 2nd, 24th, 48th, 72nd hour after challenge, FIG. 9A",significantly and dose-dependently inhibit the ear edema
same,ameliorative effect compared with MTX,"[3]; CIA rats, DMY 100 mg/kg, MTX 3.75 mg/kg twice per week",better than that of MTX
same,arthritic scores,[3]; [5],significantly reduced
same,hind paw volume,[3]; [5],significantly reduced
same,organ indexes of spleen and/or thymus,"[3]; rat, in vivo",no adverse effect
